We go through one compound from ChEMBL document CHEMBL5137116, “Discovery of Cyclic Diarylheptanoids as Inhibitors against Influenza A Virus from the Roots of Casuarina equisetifolia” (J Nat Prod, 2022).

Data set [1] deals with Influenza A virus. The data set can be described thus: Antiviral activity against Influenza A virus A/WSN/33(H1N1) infected in HEK293T cells assessed as inhibition of viral replication at 50 uM by Gaussia luciferase assay. It is filed as functional. The settings on record: HEK-293T.
The test system of data set [2] is Influenza A virus. The data set can be described thus: Antiviral activity against Influenza A virus A/WSN/33(H1N1) infected in HEK293T cells by Gaussia luciferase assay. It is filed as functional, organism-based. As to conditions: HEK-293T.
The nature of data set [3]: Cytotoxicity against dog MDCK cells by MTT assay. It is filed as toxicity, cell-based, Canis lupus familiaris. (In general: Formazan colour is commonly taken as a measure of viable cells.)
Data set [4] can be described thus: Selectivity index, ratio of CC50 for cytotoxicity against dog MDCK cells to IC50 for antiviral activity against Influenza A virus A/WSN/33(H1N1) infected in HEK293T cells. It counts as toxicity, cell-based. The settings on record: read-out: Selectivity Index.

In general, inhibition refers to the share of the control response that was lost under treatment. What is called IC50 is the concentration at which inhibition is half-maximal. Read a low IC50 as inhibition by little substance. The term CC50 denotes the concentration at which the toxic effect on the cells reaches its halfway point. Lower therefore signals harm at low concentration. Turning to `O=C1/C=C/CCc2ccc(O)c(c2)-c2cc(ccc2O)C[C@H]1O`, the inhibition at 50 µM with Influenza A virus [1] worked out at 60%. In the data set with Influenza A virus [2], this compound yielded an IC50 of 8.64 µM. Further, the CC50 at 48 h in data set [3] was greater than 100 µM. In data set [4], the selectivity ratio is greater than 12.
